“And” between values parts separate entries of the source, which are not always exact repeats. Identical values can stand only once.
Assay: Long-lasting analysis on scent strip (GC-MS with internal standard)
Type: physicochemical
Details: for PA (GC-MS signal), sample 1-3 / Ratio PA/IS, sample 1-3: individual scent strips, listed as PA
Method: In one embodiment, the long-lasting analysis is carried out as follows: 50 µl of a 1 % solution of the identified candidate to be tested in alcohol, preferably ethanol, are applied on a scent strip, preferably a cellulosic scent strip, to be dosed. The strip is allowed to dry under ambient laboratory conditions, with normal room air movement, in particular no fan, heating or any mean or device to accelerate evaporation. After different times, each strip or at least the part of the scent strip including the area where the solution of the identified candidate to be tested was applied is extracted using 3 ml of alcohol, preferably ethanol, containing an internal standard, such as methyl decanoate. The extracts are then analyzed by gas chromatography and the result is normalized for the principal molecular ion of the identified candidate using the value for the internal standard.
50 µl of a 1 % solution of patchouli alcohol in ethanol was added by pipette to the tip to a series of different scent strips (SARL H. GRANGER-VEYRON, Privas, France). The strips were allowed to dry under ambient laboratory conditions.
After different times (t0, t0+1hour, t0+2hours, t0+4hours, t0+8hours) the tip of a strip where the 50 µl of the solution of the tested material had been applied was cut and put in a 30 ml bottle and extracted using 3 ml of ethanol, containing 50 µl of methyl decanoate as internal standard (10000 ppm solution in cyclohexane), added to each bottle. Care was taken to ensure the entire area around the point of application was included in the area that was cut and extracted. The content of the bottles was mixed for 30 min on a roller bed, and 2 ml vials were then filled with each sample.
Samples were triplicated, i.e. 3 scent strip tips were analysed for each time point.
In a first series of experiments, samples taken at t0, t0+1hour and t0+2hours were analyzed by GC-MS on a […] gas chromatography column (column BC-WAX (50m * 0.25mm * 0.15µm) which is a GC Sciences column supplied by Interchim, Montluçon, France).
In a second series of experiments, samples taken at t0, t0+4hours and t0+8hours were analyzed by GC-MS on a non-polar gas chromatography column (HP-5MS UI (30m * 0.25mm * 0.25µm) which is an Agilent column supplied by Chromoptic, Courtaboeuf, France).
In Tables 6-11, PA stands for patchouli alcohol and IS stands for the internal standard, i.e. methyl decanoate. When plotting the residual concentration of patchouli on the scent strip as a function of time, the mean ratio at t0 was normalized to 100 and then t0+1h, t0+2h, t0+4h and t0+8h were calculated; t0 being defined as 2 minutes after dosing the 50 µl of the solution of the tested material, which was applied towards the tip of the scent strip.
A "long-lasting" analysis of pogostone was performed as described in Example 5 with samples taken at t0, t0+1hour and t0+2hours.
In Tables 12-14 herebelow, POG stands for pogostone and IS stands for the internal standard, i.e. methyl decanoate. The mean ratio at t0 was normalized as described in Example 5.

[1] = t0, second series, HP-5MS UI column

Structure (SMILES): C[C@H]1CC[C@@]2(O)C(C)(C)[C@@H]3CC[C@@]2(C)[C@H]1C3 [Patchouli alcohol]
- retained initial concentration (after 1 hour on scent strip): at least 10%
- PA (GC-MS signal), mean value (t0+1h, BC-WAX column): 2.09E+06
- Ratio PA/IS, mean value (t0+1h, BC-WAX column): 6.70E-01
- PA (GC-MS signal), sample 1-3 (t0+1h, BC-WAX column): 2.10E+06 and 2.12E+06 and 2.05E+06
- Ratio PA/IS, sample 1-3 (t0+1h, BC-WAX column): 6.50E-01 and 7.16E-01 and 6.43E-01
- PA (GC-MS signal), mean value (t0+2h, BC-WAX column): 1.35E+06
- Ratio PA/IS, mean value (t0+2h, BC-WAX column): 4.29E-01
- PA (GC-MS signal), sample 1-3 (t0+2h, BC-WAX column): 1.38E+06 and 1.32E+06 and 1.35E+06
- Ratio PA/IS, sample 1-3 (t0+2h, BC-WAX column): 3.74E-01 and 4.52E-01 and 4.62E-01
- PA (GC-MS signal), mean value (t0+4h, HP-5MS UI column): 3.26E+06
- Ratio PA/IS, mean value (t0+4h, HP-5MS UI column): 4.15E-01
- PA (GC-MS signal), sample 1-3 (t0+4h, HP-5MS UI column): 3.83E+06 and 2.94E+06 and 3.00E+06
- Ratio PA/IS, sample 1-3 (t0+4h, HP-5MS UI column): 4.67E-01 and 3.89E-01 (2×)
- PA (GC-MS signal), mean value (t0+8h, HP-5MS UI column): 1.58E+06
- Ratio PA/IS, mean value (t0+8h, HP-5MS UI column): 1.86E-01
- PA (GC-MS signal), sample 1-3 (t0+8h, HP-5MS UI column): 2.02E+06 and 1.37E+06 and 1.35E+06
- Ratio PA/IS, sample 1-3 (t0+8h, HP-5MS UI column): 2.16E-01 and 1.77E-01 and 1.65E-01
- PA (GC-MS signal), mean value (t0, BC-WAX column): 2.93E+06
- Ratio PA/IS, mean value (t0, BC-WAX column): 9.67E-01
- PA (GC-MS signal), sample 1-3 (t0, BC-WAX column): 2.98E+06 and 2.87E+06 and 2.94E+06
- Ratio PA/IS, sample 1-3 (t0, BC-WAX column): 9.42E-01 and 9.89E-01 and 9.69E-01
- PA (GC-MS signal), mean value [1]: 9.18E+06
- Ratio PA/IS, mean value [1]: 1.24E+00
- PA (GC-MS signal), sample 1-3 [1]: 9.37E+06 and 9.23E+06 and 8.94E+06
- Ratio PA/IS, sample 1-3 [1]: 1.25E+00 and 1.22E+00 and 1.26E+00
